In patent US6762174B1 (priority 1998, dated 2004):
Several values for one entry are separate records, joined by “and”; a condition that tells them apart may be missing. Equal values may be shown once. Read-outs that look alike come from different tables or passages of the source. Marks after values point to notes of the source that are not given here.

How the values were obtained:
[1] = test system: anti-Pn14 antibodies (Pn14-Tetanus Toxin antigen); set-up: species or system BALB/c female mice; conditions: mouse, in vivo
[2] = test system: human hematopoietic progenitor cells (CD34+ cells); assay: Blood cell stimulation: CD34+ suspension culture, lineage marker ELISA; type: cell-based; conditions: Study 1: 1 ng/ml compound
Method: A 96-well-based suspension culture system (Warren et al, Stem Cells 13:167 (1995) for human hematopoietic progenitor cells was used to monitor the commitment and differentiation of CD34+ cells in vitro. Expression of maturation and lineage markers on the cells in culture were measured by ELISA. […] A combination of growth factors was added that stimulates the expression of the appropriate lineage markers. The culture consisted of: IMDM plus 15% FBS, 0.5 ng/ml IL-3, 20 ng/ml SCF, 1 unit/ml EPO, 1 ng/ml GCSF and the indicated concentrations of test compounds. The cells were then fixed with a glutaraldehyde-paraformaldehyde mixture, attaching the cells firmly to the plastic. An ELISA was performed (Warren et al, Stem Cells 13:167 (1995)), using appropriate primary antibodies directed against cell surface markers. The expression of three different lineage markers was measured: CD14 (monocyte), CD15 (neutrophil), and glycophorin A (erythroid).

[3] = test system: delayed type hypersensitivity (DTH) response to oxazalone (OX); set-up: species or system mice; conditions: mouse, in vivo
[4] = test system: Hybridoma cells (ATCC #CRL-8014, OKT-8); assay: Production of monoclonal antibodies from hybridomas (sandwich ELISA); type: cell-based; conditions: 200 ρg/ml vs control
Method: Hybridoma cells (ATCC #CRL-8014, OKT-8, secreting an IgG2 anti-human T-cell subset antibody) were growth with or without N-carbobenzoxy-β-alanyl-taurine zinc salt in T25 culture flasks. Cells were inoculated at a density of 10,000 cells/ml and maintained below 500,000 cells/ml in 5 mls of protein-free media containing HyQ-PF-MAB from Hyclone. Aliquots were assayed for Mab production by a sandwich ELISA. Aliquots were diluted to be within the standard range and added to plates precoated with goat anti-mouse IgG by incubating two hours at room temperature. Wells were washed and reacted with diluted supernatants, then washed and detected with peroxidase labeled anti-mouse antibodies.

Row | Compound | Mean Change in O.D. from pre-boost 10 days after boost with UNCONJUGATED polysaccharide [1] | Mean Change in O.D. from pretest, Day 4 [1] | Mean Change in O.D. from pretest, Day 14 [1] | Mean Change in O.D. from pretest, Day 14 ([1]; ip) | Percent difference (relative to control), monocytes [2] [%] | Percent difference (relative to control), neutrophils [2] [%] | Percent difference (relative to control), red blood cells [2] [%] | Major DTH at 24 hrs [3] | Major DTH at 48 hrs. [3] | Major DTH at either 24 or 48 hrs. [3] | Moderate DTH at 24 hrs [3] | response rate, moderate DTH at 24 hrs [3] | total treated animals with major immune response [3] | total treated animals with major response [3] | Major DTH at 24 hrs ([3]; iv) | Major DTH at 48 hrs. ([3]; iv) | Increase of IgG μg/ml [4] [%] | Increase of IgG ρg/cell [4] [%]
1 | NCCC(=O)NCCS(=O)(=O)O [Taurox-S, β-alanyl-taurine] | 204 | 2.9 | 697 | 681 and 671 | 47 | 55 | 50 | – | – | – | – | – | – | – | – | – | – | –
2 | N-carbobenzoxy-β-alanyl-taurine zinc salt | – | – | – | – | – | – | – | 50* | 50 | 60 | 70 | eight of ten | 14 | 21 | 20 and 10 | 20 and 10 | 316 | 93
